Measured values from the supplement of paper PMC10307832.

Assays:
[1] = compound: C1=CC=C(C(=C1)C2=CC=C(C=C2)C3=CSC4=C3C(=C(C(=O)N4)C#N)O)O; test: relative viability (nuclei count vs DMSO), 5 days (fraction); higher = more cells survive
Method in brief: (§1)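 Vehicle-anchored 1536-well plates of lung cancer cell lines, held overnight at 37 °C, were pinned with five library-drug doses (not always all listed) spaced by √10. No medium change followed over the next 5 days, after which the cells were fixed, permeabilised and Hoechst-stained together and imaged at 4×. Nuclei were counted with MetaXpress, and viability is treated-well nuclei over vehicle-well nuclei, taken as a median across plates. Plates passed with control CV below 25% and at least one doubling.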

TGX 221 = compound: CC1=CN2C(=O)C=C(N=C2C(=C1)C(C)NC3=CC=CC=C3)N4CCOCC4 [TGX 221]; test: as above
Method in brief: as §1

With NCI-H1792 the relative viability ([1]; 0.253 µM) was 1.01, the relative viability ([1]; 0.8 µM) was 0.723 and the relative viability ([1]; 2.53 µM) was 0.921. The relative viability ([1]; 8 µM) was 0.446, the relative viability (TGX 221; 0.08 µM) was 0.749 and the relative viability (TGX 221; 0.253 µM) was 0.878. The relative viability (TGX 221; 0.8 µM) was 1, the relative viability (TGX 221; 2.53 µM) was 0.883 and the relative viability (TGX 221; 8 µM) was 0.864.
